# Results taken from PubChem BioAssay AID1902 (Broad Institute, 2009).
# Several values for one entry are separate records, joined by “and”; a condition that tells them apart may be missing. Identical values can stand only once. Activity calls are given as the source filed them.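 Rule for the calls: active = EC50 no more than a set limit of log units above the highest dose; inactive = the rest.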
# Biological target: S. pyogenes SKKanGAS, kanamycin survival, BacTiterGlo, 6 h
# Assay: S. pyogenes SKKanGAS kanamycin growth inhibitors – SKKanGAS strain, luminescence, dose confirmation, streptokinase promoter inhibitor project, dose response (AID 1902);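 note: lower survival reflects blocked streptokinase promoter driving kanamycin resistance gene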
row,SMILES,EC50
1,NC(N)=N/N=C/c1ccc(OCc2ccccc2)c(OCc2ccccc2)c1,6.82 µM
2,C/C(=C\C(=O)OCCCCCCCCC(=O)O)C[C@@H]1OC[C@H](C[C@@H]2O[C@H]2[C@@H](C)[C@H](C)O)[C@@H](O)[C@H]1O,< 0.06 µM
3,Cc1cc(/C=C2\SC(=S)NC2=O)c(C)n1-c1cccc(O)c1,3.06 µM
4,CC(C)(C)c1nc(NC(=O)Nc2ccccc2)sc1Br,6.3 µM
5,Cc1cccc(-c2nnc(NC(=O)c3ccc(Cl)cc3)o2)c1,0.097 µM
6,Cc1cc(C(C)(C)C)cc(C)c1COC(=O)c1cccnc1,3.25 µM
7,CCCCCCCCCc1nc2sc3c(c2c(=O)n1NC(=O)c1ccccc1[N+](=O)[O-])CC(C)(C)OC3,2.75 µM
8,O=C(NNC(=S)NC(=O)c1ccc(Br)cc1)c1cccc([N+](=O)[O-])c1,0.892 µM
9,Nc1nc(CN2CCC(Cc3ccccc3)CC2)nc(Nc2ccccc2)n1,1.95 µM
10,COc1ccc2nc(-n3c(C)ccc3C)sc2c1,> 15 µM (inactive)
11,O=[N+]([O-])c1cc(Cl)c(O)c2ncccc12,0.782 µM
12,O=C(CSc1nnc(-c2ccc3c(c2)OCO3)o1)Nc1ncc(C(F)(F)F)cc1Cl,0.856 µM
13,Nc1[nH]n2c(=O)c3c(nc2c1N=Nc1ccc(Cl)cc1)CCCC3,6.13 µM
14,COc1ccccc1CNC(=O)CSc1nc(=O)n(Cc2ccncc2)c2c1CCC2,> 15 µM (inactive)
15,CSc1nc2cc(Oc3cccc(Cl)c3Cl)c(Cl)cc2[nH]1,2.93 µM
16,S=c1[nH]cnc2scc(-c3ccc(Cl)cc3)c12,9.77 µM
17,COc1ccc(Cl)cc1/C=C/c1ccc2cccc(O)c2n1,0.388 µM
18,Oc1ccccc1C1CCCCC1c1ccccc1 (stereo not drawn),3.9 µM
19,C=CCSc1nc2ccccc2c(=O)n1Cc1ccccc1,15.3 µM
20,Cc1nn(-c2ccccc2)c(Cl)c1/C=C1\SC(=S)N(CCCCCC(=O)O)C1=O,3.04 µM
21,COc1ccc(Nc2nc(NN)nc(Nc3ccc(OC)cc3)n2)cc1,6.02 µM
22,CCc1ccc(S(=O)(=O)/N=C2\C=C(Nc3ccc(C(=O)O)cc3)C(=O)c3ccccc32)cc1,0.444 µM

row,SMILES,EC50
1,CCOC(=O)c1c2c(n(C)c1COC)C(=O)C(=O)c1ccc(Br)cc1-2,3.66 µM
2,Cc1cccc(NC2=NC(C)(C)N=C(N)N2)c1,0.109 µM
3,O=C(N/N=C/c1ccc([N+](=O)[O-])o1)c1cc(-c2cccc(Br)c2)nc2ccccc12,0.422 µM
4,Cc1[nH]c2ccccc2c1C(c1ccccn1)c1c(C)[nH]c2ccccc12,8.63 µM
5,CCOC(=O)c1ccc(Oc2cn[nH]c2-c2ccc(OCC(=O)NN)cc2O)cc1,0.357 µM
6,O=[N+]([O-])/C=C/c1ccc2c(ccn2Cc2ccccc2)c1,3.04 µM
7,CCCCCCSc1cc(-c2nc3cnccn3c2NCc2ccccc2)ccc1OC,3.61 µM
8,O=C(O)c1ccccc1N/N=C/c1cc(Br)cc(Br)c1O,7.96 µM
9,CCC(=O)Nc1nc2ccccc2n1Cc1ccccc1C,1.62 µM
10,Cc1ccccc1/C=C/C(=O)c1ccc([N+](=O)[O-])o1,4.61 µM
11,Oc1c(N=NC(=S)Nc2ccccc2F)c2ccccc2n1Cc1ccc(F)cc1,0.892 µM
12,CSc1nc(Oc2ccc3ccccc3c2)c2sccc2n1,7.58 µM
13,Cc1cccc2sc(NNC(=O)c3ccc(S(=O)(=O)N4CCc5ccccc5C4)cc3)nc12,0.368 µM
14,O=C(CNc1ccc2ccccc2c1)N/N=C/c1ccc([N+](=O)[O-])o1,14.3 µM
15,Oc1ccc(/C=N/Nc2nc(N3CCCCCC3)nc(N3CCCCCC3)n2)c(O)c1,1.73 µM
16,O=C(Cc1ccccc1)N/N=C/c1cc(Br)cc(Cl)c1O,1.52 µM
17,CC(C)C[C@H](NC(=O)c1nc[nH]c1C(=O)N[C@@H](CC(C)C)C(=O)OC(C)(C)C)C(=O)OCc1ccccc1,1.45 µM
18,CC(C)(C)c1ccc(C(=O)NNC(=S)NC(=O)c2cccnc2)cc1,0.249 µM
19,O=C(Nc1cccc(Cl)c1)Nc1cc(S(=O)(=O)N2CCCCC2)ccc1Cl,7.75 µM
20,COc1ccc(/C=C/C(=O)NC(=S)NNC(=O)c2ccco2)cc1,1.67 µM
21,O=C(CCCSc1ccccc1)Nc1nc(-c2ccccn2)cs1,6.17 µM
22,CCCC(=O)NC(c1ccc(C)cc1)c1ccc2cccnc2c1O (stereo not drawn),4.16 µM

row,SMILES,EC50
1,COc1cccc2c1C(=O)c1c(O)c3c(c(O)c1C2=O)C[C@@](O)(C(=O)CO)C[C@@H]3O[C@H]1C[C@H](N)[C@H](O)[C@H](C)O1,1.15 µM
2,Cc1cccc2sc(NNC(=O)c3cc(-c4cccs4)nc4ccccc34)nc12,1.05 µM
3,CC(=O)c1c(O)cc(O)c(C(C)=O)c1O,2.64 µM
4,Cc1[nH]n(-c2ccccc2)c(=O)c1/C=N/NC(=O)c1cccc(F)c1,3.44 µM
5,C=CCn1c(=O)c(C(=O)NCc2ccccc2)c(O)c2ccccc21,3.32 µM
6,CC(C)(C)NS(=O)(=O)c1ccc(NS(=O)(=O)Cc2ccccc2)cc1,> 15 µM (inactive)
7,O=c1c2ccccc2sn1-c1cc(S(=O)(=O)N2CCOCC2)ccc1N1CCOCC1,13.3 µM
8,C/C(=N\NC(=O)CSc1nc(C)[nH]c1[N+](=O)[O-])c1ccc(F)cc1,> 15 µM (inactive)
9,CCC1=NN2C(=N)/C(=C\c3cccn3-c3ccc(C)c(C)c3)C(=O)N=C2S1,3.91 µM
10,COc1ccc(-c2cc3ncnc(Cl)c3s2)cc1,7.15 µM
11,CC(=O)N1CCc2cc(S(=O)(=O)N3CCc4ccccc43)ccc21,> 15 µM (inactive)
12,CN1C(=O)/C(=C/c2cccn2-c2ccc3ccccc3c2)C(=O)NC1=S,5.74 µM
13,Cc1ccc(C(O)(C(=O)NNc2ccc3ccccc3n2)c2ccc(C)cc2)cc1,2.04 µM and 2.98 µM
14,O=C(CCCCCNC(=O)c1ccccc1)N=Nc1c(O)[nH]c2c(Br)cc(Br)cc12,5.43 µM
15,COc1cccc(-c2nnc(Nc3nc4c(F)cccc4s3)o2)c1,0.502 µM
16,Cc1cccc(C(=O)Nc2scc(-c3ccc(Br)cc3)c2C(=O)O)c1,1.89 µM
17,CC(=O)Nc1ccc(C#Cc2ccc(NC(C)=O)cc2)cc1,1.19 µM
18,COc1ccc(OC)c(NC(=O)NCc2cccnc2)c1,> 15 µM (inactive)
19,O=C(Nc1ccc(F)c(Cl)c1)Nc1csc2ccccc12,2.79 µM
20,O=C(C[n+]1ccc2ccccc2c1)Nc1cc(C(F)(F)F)ccc1Cl,> 15 µM (inactive)
21,O=C(N/N=C/c1cc(Br)cc(Br)c1O)c1cccc(S(=O)(=O)N2CCOCC2)c1,1.17 µM
22,COc1cc(OC)cc(C(=O)Nc2nnc(NC(=S)Nc3ccccc3)s2)c1,5.13 µM

row,SMILES,EC50
1,CC(C)(C)c1ccc(C(=O)Nc2nnc(C3=COCCO3)o2)cc1,0.446 µM
2,CCOC(=O)C1=C(C)n2c(s/c(=C/c3cccc([N+](=O)[O-])c3)c2=O)=NC1c1ccc(O)c(OC)c1 (stereo not drawn),10.5 µM
3,CCOC(=O)c1cc(-c2cccs2)nc2c1c(C)nn2-c1ccccn1,2.64 µM
4,CC(NS(=O)(=O)OCC(Cl)(Cl)Cl)c1ccc(C(C)(C)C)cc1 (stereo not drawn),4.64 µM
5,COc1ccc(C(=O)c2c(C(F)(F)F)oc3c2C(=O)c2ccccc2C3=O)cc1OC,0.746 µM
6,O=C(NCc1ccc(C(F)(F)F)cc1)c1ccc2c(c1)S(=O)(=O)c1ccccc1C2=O,> 15 µM (inactive)
7,Nc1nc(NC(=O)/C=C/c2ccc(F)cc2)nn1-c1ccccc1,2.62 µM
8,COc1ccc(/C=C2/C(=O)N(c3nc4ccccc4s3)N=C2CSc2ccc(Cl)cc2)cc1,0.518 µM
9,COc1cc(F)ccc1CN1CCC(n2nccc2NC(=O)C2CCOC2)CC1 (stereo not drawn),> 15 µM (inactive)
10,COc1cc(/C=N/Nc2nc3ccccc3s2)cc([N+](=O)[O-])c1O,8.93 µM
11,Cc1nnc(-c2cccc(Br)c2)c2cn(-c3ccc(Br)cc3)nc12,3.07 µM
12,COc1ccc(C(=O)NNC(=S)NC(=O)c2cccs2)cc1,2.2 µM
13,COC(=O)c1ccc(N2CCC(c3cc(-c4ccc(OC)cc4)n[nH]3)CC2)c([N+](=O)[O-])c1,2.15 µM
14,Cc1ccc(Oc2nc(-c3ccccn3)nc3ccccc23)cc1,< 0.06 µM
15,FC(F)(F)c1cccc(NC(=S)Nc2ccc(Cl)cc2Cl)c1,2.83 µM
16,COc1ccc(-c2cc(C3CCN(c4ccc(C(C)=O)cc4[N+](=O)[O-])CC3)[nH]n2)cc1,2.76 µM
17,N#CC(C(=O)C12CC3CC(CC(C3)C1)C2)c1nc2ccccc2[nH]1 (stereo not drawn),3.23 µM
18,CCn1cc(C(=O)NCc2ccc3c(c2)OCO3)c(=O)c2cc(F)c(N3CCN(C(=O)c4ccco4)CC3)cc21,9.9 µM
19,CC(=O)Nc1nc(NC(=O)/C=C/c2ccccc2)n(-c2ccccc2)n1,1.74 µM
20,COc1ccc(Br)cc1[C@H]1[C@@H]2C=CCC[C@@]2(C)C(=O)N1Cc1ccccc1,4.92 µM
21,O=C(CSc1nnc(CNC(=O)c2c(F)cccc2F)o1)NCc1ccccc1,> 15 µM (inactive)
22,O=C1C(Nc2ccc(O)cc2)=C/C(=N/S(=O)(=O)c2cccs2)c2ccccc21,1.97 µM

row,SMILES,EC50
1,CCCCCC/C(=N/O)c1ccccn1,15.4 µM
2,CCC(=O)N(CCC(Cc1ccccc1)c1ccc2c(c1)OCO2)Cc1ccccc1F (stereo not drawn),6.5 µM
3,CCCc1cc(=O)n2[nH]cc(-c3ccc(Cl)cc3)c2n1,1.78 µM
4,CCCc1nc(NCc2ccccc2)c(C#N)c2c1CCCC2,2.93 µM
5,CCCN(Cc1ccco1)S(=O)(=O)c1ccc(OC)c(OC)c1,> 15 µM (inactive)
6,Cc1ccc(Nc2c(-c3ccccn3)nc3cccc(C)n23)cc1,0.322 µM
7,CCOC(=O)[C@@H]1[C@H]2COc3ccccc3[C@H]2N2C(=O)N(c3ccc(C(F)(F)F)cc3)C(=O)[C@]12C,6.08 µM
8,Cn1c(=O)c(NCCc2ccccc2)c2c3c(cccc31)C(=O)c1ccccc1-2,8.86 µM
9,COc1ccc(Cl)cc1C(=O)NNC(=S)NC(=O)c1ccc(F)c(F)c1,0.139 µM
10,CCCN(CC(=O)Nc1ccccc1OC)C(=O)c1ccncc1,> 15 µM (inactive)
11,CCc1cccc2c(C(=O)COC(=O)/C=C/c3ccc(O)c(OC)c3)c[nH]c12,7.63 µM
12,Cc1nn(-c2ccccc2)c(Cl)c1C1C(C#N)=C(N)OC2=C1C(=O)CCC2 (stereo not drawn),1.25 µM
13,CCOC(=O)c1sc(NC(=O)Nc2ccc(Cl)cc2)cc1C,10.1 µM
14,Cc1cccc(C(=O)NNC(=O)c2c(O)c3ccccc3n(C)c2=O)c1,6.96 µM
15,CCCCNC(=O)c1ccc(NC(C)=O)c(Cl)c1,> 15 µM (inactive)
16,Cc1ccc(NC(=O)C(OC(=O)c2ccc(NC(N)=O)cc2)c2ccccc2)cc1Cl (stereo not drawn),6.52 µM
17,O=C(Nc1ccccc1C(=O)O)c1cccc(NC(=O)c2ccc(Br)o2)c1,4.96 µM
18,O=S(=O)(Cc1nnnn1-c1ccccc1)c1ccc(F)cc1,> 15 µM (inactive)
19,O=C(Nc1nnc(C2CCCCC2)s1)c1ccc(Br)s1,3.99 µM
20,N=C1S/C(=C\c2ccco2)C(=O)N1c1nccs1,2.13 µM
